# Experimental data from US20090264401A1, “SUBSTITUTED PYRIMIDIN-5-CARBOXAMIDES 281” (AstraZeneca AB, priority 2008, published 2009).
# pIC50: −log10 of the molar value.
# Molecular target: T1, human 11βHSD1 enzyme (Homo sapiens, UniProt P28845)
# T1 construct: baculovirus expressed N terminal 6-His tagged full length human 11βHSD1 enzyme; 6-His (N); made in house
# Test: 11βHSD1 cortisone to cortisol conversion, competitive HTRF assay
# Format: biochemical
# Conditions: human 11-βHSD; test concentration of 30 μM of compound
# Summary of the method: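 Enzyme was baculovirus-expressed, N-terminal 6-His-tagged full-length human 11βHSD1, purified on a copper chelate column. Compounds were added in buffer containing 1% DMSO at 10-fold final concentration.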
# T1 sequence (P28845 whole entry): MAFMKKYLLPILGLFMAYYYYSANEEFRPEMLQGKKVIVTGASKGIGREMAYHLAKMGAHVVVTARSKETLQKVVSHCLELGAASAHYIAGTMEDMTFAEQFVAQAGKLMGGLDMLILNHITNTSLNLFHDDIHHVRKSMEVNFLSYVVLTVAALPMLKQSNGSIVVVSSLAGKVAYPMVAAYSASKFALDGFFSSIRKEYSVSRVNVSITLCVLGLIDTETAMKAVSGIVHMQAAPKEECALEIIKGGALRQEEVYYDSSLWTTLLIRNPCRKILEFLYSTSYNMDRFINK
row,SMILES,inhibition at 30 µM [%]
1,"COc1nc(NC2CC2)ncc1C(=O)N[C@H]1C2CC3CC1C[C@@](O)(C3)C2 [Example 206, 2-(cyclopropylamino)-N-[(2r,5s)-5-hydroxytricyclo[3.3.1.13,7]dec-2-yl]-4-methoxypyrimidine-5-carboxamide]",105
2,"COc1nc(OC2CCC2)ncc1C(=O)N[C@H]1C2CC3CC1C[C@@](O)(C3)C2 [Example 208, 2-(cyclobutyloxy)-N-[(2r,5s)-5-hydroxytricyclo[3.3.1.13,7]dec-2-yl]-4-methoxypyrimidine-5-carboxamide]",102
3,"CCOc1nc(N2C[C@@H](C)O[C@@H](C)C2)ncc1C(=O)N[C@H]1C2CC3CC1C[C@@](O)(C3)C2 [Example 209, 2-[(2S,6R)-2,6-dimethylmorpholin-4-yl]-4-ethoxy-N-[(2r,5s)-5-hydroxyadamantan-2-yl]pyrimidine-5-carboxamide]",99.4
4,"CCOc1nc(NC2CC2)ncc1C(=O)N[C@H]1C2CC3CC1C[C@@](O)(C3)C2 [Example 210, 2-(cyclopropylamino)-4-ethoxy-N-[(2r,5s)-5-hydroxytricyclo[3.3.1.13,7]dec-2-yl]pyrimidine-5-carboxamide]",97.2
5,"CCOc1nc(NC2COC2)ncc1C(=O)N[C@H]1C2CC3CC1C[C@@](O)(C3)C2 [Example 211, 4-ethoxy-N-[(2r,5s)-5-hydroxytricyclo[3.3.1.13,7]dec-2-yl]-2-(oxetan-3-ylamino)pyrimidine-5-carboxamide]",98.4
6,"CCOc1nc(NC2CCC2)ncc1C(=O)N[C@H]1C2CC3CC1C[C@@](O)(C3)C2 [Example 212, 2-(cyclobutylamino)-4-ethoxy-N-[(2r,5s)-5-hydroxytricyclo[3.3.1.13,7]dec-2-yl]pyrimidine-5-carboxamide]",105
7,"CC(C)Oc1nc(NC2CC2)ncc1C(=O)N[C@H]1C2CC3CC1C[C@@](O)(C3)C2 [Example 215, 2-(cyclopropylamino)-N-[(2r,5s)-5-hydroxytricyclo[3.3.1.13,7]dec-2-yl]-4-(1-methylethoxy)pyrimidine-5-carboxamide]",94.9
8,"COCc1nc(N2C[C@@H](C)O[C@@H](C)C2)ncc1C(=O)N[C@H]1C2CC3CC1C[C@@](O)(C3)C2 [Example 219, 2-[(2S,6R)-2,6-Dimethylmorpholin-4-yl]-N-[(2r,5s)-5-hydroxyadamantan-2-yl]-4-(methoxymethyl)pyrimidine-5-carboxamide]",98.6
9,O=C(N[C@H]1C2CC3CC1C[C@@](O)(C3)C2)c1cnc(N2CCOCC2)nc1N1CCOCC1 [compound 32],97

# Further lines, results first:
row,inhibition at 30 µM [%],SMILES
1,93,"COc1nc(NC2CCC2)ncc1C(=O)N[C@H]1C2CC3CC1C[C@@](O)(C3)C2 [Example 207, 2-(cyclobutylamino)-N-[(2r,5s)-5-hydroxytricyclo[3.3.1.13,7]dec-2-yl]-4-methoxypyrimidine-5-carboxamide]"
2,107,"CCOc1nc(OC2CCC2)ncc1C(=O)N[C@H]1C2CC3CC1C[C@@](O)(C3)C2 [Example 213, 2-(cyclobutyloxy)-4-ethoxy-N-[(2r,5s)-5-hydroxytricyclo[3.3.1.13,7]dec-2-yl]pyrimidine-5-carboxamide]"
3,103,"CC(C)Oc1nc(N2C[C@@H](C)O[C@@H](C)C2)ncc1C(=O)N[C@H]1C2CC3CC1C[C@@](O)(C3)C2 [Example 214, 2-[(2R,6S)-2,6-dimethylmorpholin-4-yl]-N-[(2r,5s)-5-hydroxytricyclo[3.3.1.13,7]dec-2-yl]-4-(1-methylethoxy)pyrimidine-5-carboxamide]"
4,94.2,"CC(C)Oc1nc(NC2CCC2)ncc1C(=O)N[C@H]1C2CC3CC1C[C@@](O)(C3)C2 [Example 217, 2-(cyclobutylamino)-N-[(2r,5s)-5-hydroxytricyclo[3.3.1.13,7]dec-2-yl]-4-(1-methylethoxy)pyrimidine-5-carboxamide]"
5,96,"CC(C)Oc1nc(OC2CCC2)ncc1C(=O)N[C@H]1C2CC3CC1C[C@@](O)(C3)C2 [Example 218, 2-(cyclobutyloxy)-N-[(2r,5s)-5-hydroxytricyclo[3.3.1.13,7]dec-2-yl]-4-(1-methylethoxy)pyrimidine-5-carboxamide]"

# Same assay, conditions: recombinant N terminal 6-His tagged full length human 11βHSD1; cortisone 160 nM; 25 minutes at 37° C.
row,pIC50,SMILES
1,6.66,O=C(N[C@H]1C2CC3CC1C[C@@](O)(C3)C2)c1cnc(N2CCOCC2)nc1N1CCOCC1 [compound 32]
